The assay deals with intestinal Cl− secretion. As to the kind of experiment: Short-circuit current (Isc) measurement of cecum mucosa sample in Ussing chamber after forskolin. It is filed as cell-based, mouse. The procedure: A sample of large-intestinal mucosa was prepared in the following manner. A mouse was killed by cervical vertebra dislocation. After abdominal incision, the cecum was excised by cutting the boundary parts of the cecum with the small intestine and the large intestine. The cecum was cut open with scissors into a sheet. In order to completely remove the contents of the cecum, the cecum was pinched with tweezers and washed with a buffered solution. Then, a substitution fluid was placed in a petri dish covered with rubber, and the cecum was attached thereon with the serosa side up. Under conditions in which the buffered solution-in the petri dish was always aerated with 95% O2/5% CO2, the muscle layer was peeled using tweezers, and a sample composed of mucosa and submucosa was produced. The sample was divided into four pieces for the experiment.
Electrical analysis was carried out using this sample. FIG. 1 is a diagram showing an embodiment of measurement of short-circuit current (Isc) in Ussing chamber. The mucosa sample was placed between two Ussing-type chambers (window area: 0.2 cm^2) containing 5 ml of buffered solution. For the measurement of the electrical potential difference, a pair of calomel electrodes was connected to each chamber through a 1MKCl/2% agar salt bridge. For passing current, Ag/AgGl electrodes connected through a 1MNaCl/2% agar salt bridge were mounted. These electrodes were connected to a voltage clamp apparatus, and the short-circuit current (Isc) was measured. As for Isc, the current flowing from the mucosa side to the serosa side was positive.
The solutions to be administered were prepared as stock solutions so that the concentration of each solution was 1,000 times higher than the desired final concentration.

[1] abbreviates: 20 μM on the serosa side after forskolin.
[2] abbreviates: 50 μM on the serosa side after forskolin.

With `CC(C)[C@@H]1CC[C@@H](C)C[C@H]1OCCCO`, the Isc decrease entry by setting is: under setting [1], “about 50 μA/cm^2”; under setting [2], “about 70 μA/cm^2”.
Regarding `CC(C)[C@@H]1CC[C@@H](C)C[C@H]1OCCO` [2-(l-menthoxy)ethanol], the Isc decrease entry is listed as “about 10 μA/cm^2” under setting [1] and “about 70 μA/cm^2” (150 μM on the serosa side after forskolin).
Consider `CC(C)[C@@H]1CC[C@@H](C)C[C@H]1OCC(C)(O)CO` (stereo partly drawn) [2-methyl-3-(l-menthoxy)propane-1,2-diol], for which, under setting [1], the Isc decrease entry is “about 100 μA/cm^2” and the “action on Isc compared with menthol” value was “almost equal to the administration of 500 μM of menthol”. Under “serosa side after forskolin”, the “dose dependence of the Isc inhibitory effect” value is listed as “dose dependence was observed at doses up to 50 μM”.
Turning to `CC1CCC(C(C)C)C(OCC(O)CO)C1` (stereo not drawn) [3-(l-menthoxy)propane-1,2-diol], the Isc decrease entry by setting is: under setting [1], “about 50 μA/cm^2”; under setting [2], “about 70 μA/cm^2”.

The values above are taken from patent US20100216876A1, “ANTIDIARRHETIC COMPOSITION, PRODUCT CONTAINING THE SAME AND METHOD OF PREVENTING DIAHHREA” (priority 2007, published 2010).
